Results on 33 compounds are retold here after patent publication US20100081679A1, “DIAMINOPYRIMIDINES AS FUNGICIDES” (Bayer CropScience AG, priority 2007, published 2010).

Marks after values point to notes of the source that are not given here.

A short description of the first data set: logP determination via retention times, calibrated with unbranched alkan-2-ones. Type of data set: physicochemical. The conditions noted are these: HPLC on reversed-phase C18, method **: 43° C.; mobile phase 0.1% aqueous phosphoric acid and acetonitrile; linear gradient 10% to 95% acetonitrile.
For `Nc1ccc(Nc2ncc(Cl)c(NC3CC3)n2)cc1` [compound 272], the logP is recorded as 0.48**.

Staying with this data set, now noted: HPLC on reversed-phase C18, method *: 40° C.; mobile phase 0.1% aqueous formic acid and acetonitrile; linear gradient 10% to 95% acetonitrile.
As for `Nc1ccc(Nc2ncc(Cl)c(NC3CC3)n2)cc1` [compound 272], the logP was 0.45*;.
With `Cc1cccc(C)c1Nc1ncc(Cl)c(NC2CC2)n1` [compound 273], the logP is 1.59*.
The same measure, in the same setting: with `Cc1cc(C)cc(Nc2ncc(Cl)c(NC3CC3)n2)c1` [compound 274] the figure was 2.13*; with `Fc1ccccc1Nc1ncc(Cl)c(NC2CC2)n1` [compound 275], 2.09*; with `FC(F)(F)c1ccccc1Nc1ncc(Cl)c(NC2CC2)n1` [compound 276], 2.58*.
The same measure, in the same setting: the result for `FC(F)(F)c1ccc(Nc2ncc(Cl)c(NC3CC3)n2)cc1` [compound 277] reads 3.14*; that for `N#Cc1cccc(Nc2ncc(Cl)c(NC3CC3)n2)c1` [compound 278], 2.13*.
On the same count and under the same terms, the result for `COc1ccc(Nc2ncc(Cl)c(NC3CC3)n2)cc1OC` [compound 279] reads 1.47*.
On to `COc1cc(Nc2ncc(Cl)c(NC3CC3)n2)ccc1NC(C)=O` [compound 280], for which the logP is 1.18*.
Turning to `Clc1cnc(Nc2ccc(Br)cc2)nc1NC1CC1` [compound 281], the logP is 2.55*.
With `COc1ccccc1Nc1ncc(Cl)c(NC2CC2)n1` [compound 282], the logP was 1.85*.
With `COc1cccc(Nc2ncc(Cl)c(NC3CC3)n2)c1` [compound 283], the logP is on record as 1.8*.
The same measure, in the same setting: with `COc1ccc(Nc2ncc(Cl)c(NC3CC3)n2)cc1` [compound 284] the figure was 1.47*.

Staying with this data set, now noted: HPLC on reversed-phase C18 column (EEC Directive 79/831 Annex V.A8); method **: 43° C.; 0.1% aqueous phosphoric acid and acetonitrile; linear gradient 10% to 95% acetonitrile.
Take `CSc1cccc(Nc2ncc(C(F)(F)F)c(NC3CC3)n2)c1` [compound 266]: the logP was 3.49**.

The same data set, now with this note: HPLC on reversed-phase C18 column (EEC Directive 79/831 Annex V.A8); method *: 40° C.; 0.1% aqueous formic acid and acetonitrile; linear gradient 10% to 95% acetonitrile.
On to `N#CCC(=O)c1ccc(Nc2ncc(Cl)c(NC3CC3)n2)cc1` [compound 248], for which the logP is 2.09*.
As to `CC(=O)c1cc(Nc2ncc(Cl)c(NC3CC3)n2)ccc1Cl` [compound 249], the logP is given as 2.43*.
As to `CCC(=O)c1cc(Nc2ncc(Cl)c(NC3CC3)n2)ccc1O` [compound 250], the logP is listed as 1.99*.
Consider `Brc1cnc(Nc2ccc(-c3nccs3)cc2)nc1NC1CC1` [compound 251], for which the logP is 2.49*.
Same read-out and setting: with `CS(=O)(=O)c1cccc(Nc2ncc(Cl)c(NC3CC3)n2)c1` [compound 252] the figure was 1.63*; with `Clc1cnc(Nc2ccc(-c3nccs3)cc2)nc1NC1CC1` [compound 253], 2.32*; with `CS(=O)(=O)c1cccc(Nc2ncc(Br)c(NC3CC3)n2)c1` [compound 254], 1.76*.
On the same count and under the same terms, with `O=C1CCCN1c1cccc(Nc2ncc(C(F)(F)F)c(NC3CC3)n2)c1` [compound 255] the figure was 2.23*; with `COc1cc(Nc2ncc(Cl)c(NC3CC3)n2)ccc1Cl` [compound 256], 2.53*; with `CCC(=O)c1ccc(Nc2ncc(Cl)c(NC3CC3)n2)cc1` [compound 257], 2.34*.
The same measure, in the same setting: with `COc1cc(Nc2ncc(Cl)c(NC3CC3)n2)ccc1F` [compound 259] the figure was 1.9*; with `O=S(=O)(Cc1cccc(Nc2ncc(Cl)c(NC3CC3)n2)c1)N1CCOCC1` [compound 261], 1.62*; with `O=S(=O)(Cc1cccc(Nc2ncc(Cl)c(NC3CC3)n2)c1)N1CCCCC1` [compound 262], 2.24*.
Consider `CC(C)Sc1cccc(Nc2ncc(Cl)c(NC3CC3)n2)c1` [compound 264], for which the logP is 3.18*.
In the case of `O=C1CCCN1c1cc(Nc2ncc(C(F)(F)F)c(NC3CC3)n2)ccc1F` [compound 265], the logP is reported as 2.33*.
As for `CSc1cccc(Nc2ncc(C(F)(F)F)c(NC3CC3)n2)c1` [compound 266], the logP is given as 3.29*;.
Take `CC1COC(=O)N1c1cccc(Nc2ncc(Cl)c(NC3CC3)n2)c1` (centres unmarked) [compound 267]: the logP is 1.57*.
For `COCc1cccc(Nc2ncc(Cl)c(NC3CC3)n2)c1` [compound 268], the logP was 1.67*.
Consider `COCc1cccc(Nc2ncc(Br)c(NC3CC3)n2)c1` [compound 269], for which the logP is 1.8*.
On the same count and under the same terms, with `COC(c1cccc(Nc2ncc(Cl)c(NC3CC3)n2)c1)C(F)(F)F` (centres unmarked) [compound 270] the figure was 2.69*.
